{
  "source": "patent US12503484B2",
  "about": "“Androstane derivatives with activity as pure or predominantly pure stimulators of SERCA2a for the treatment of heart failure” (Seismic Pharmaceuticals, priority 2019, dated 2025)",
  "key": {"Adenosine A2A": {"molecular_target": "Adenosine A2A (Homo sapiens (Human), UniProt P29274)", "sequence (P29274 whole entry)": "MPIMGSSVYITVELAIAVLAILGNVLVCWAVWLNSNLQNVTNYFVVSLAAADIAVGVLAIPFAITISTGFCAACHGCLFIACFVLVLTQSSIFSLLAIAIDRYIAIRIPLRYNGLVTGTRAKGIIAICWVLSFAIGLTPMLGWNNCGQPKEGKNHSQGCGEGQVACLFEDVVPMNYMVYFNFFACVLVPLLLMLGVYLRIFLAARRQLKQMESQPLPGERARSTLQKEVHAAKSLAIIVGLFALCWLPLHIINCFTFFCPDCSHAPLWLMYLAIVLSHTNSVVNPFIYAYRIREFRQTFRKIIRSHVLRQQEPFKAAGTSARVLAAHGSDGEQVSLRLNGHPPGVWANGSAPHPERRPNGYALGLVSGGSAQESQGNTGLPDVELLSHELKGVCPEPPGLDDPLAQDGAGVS", "assay": "Receptor binding assay panel: Adenosine A2A"}, "Aldosterone": {"molecular_target": "Aldosterone (Rattus norvegicus (Rat), UniProt P22199)", "assay": "Receptor binding assay panel: Aldosterone"}, "Insulin": {"molecular_target": "Insulin (Rattus norvegicus (Rat), UniProt P15127)", "assay": "Receptor binding assay panel: Insulin"}, "in vivo": {"assay": "in vivo", "set-up": "dose or concentration left out as unconfirmed", "conditions": "rat"}, "GABAA, Muscimol, Central": {"test_system": "GABAA, Muscimol, Central", "assay": "Receptor binding assay panel: GABAA, Muscimol, Central", "set-up": "species or system rat", "conditions": "10 μM", "method": "(§1) Radioligand binding to a panel of receptors was carried out by Eurofins on crude membrane preparations according to published procedures and by using appropriate reference standard (Eurofin, Taiwan, compound code CVie216-3 (1226840), study #TW04-0004235, quote #TW04-0004235-Q04, for Cvie Therapeutics Limited, Taiwan). […] was tested at the concentration of 10 μM."}, "[1]": {"molecular_target": "Transporter, Norepinephrine (NET) (Homo sapiens (Human), UniProt P23975)", "assay": "Receptor binding assay panel: Transporter, Norepinephrine (NET)", "method": "as §1"}, "[2]": {"test_system": "Glutamate, NMDA, Phencyclidine", "assay": "Receptor binding assay panel: Glutamate, NMDA, Phencyclidine", "set-up": "species or system rat", "conditions": "10 μM", "method": "as §1"}, "panel of receptors": {"test_system": "panel of receptors", "assay": "Radioligand binding to a panel of receptors (Eurofins)", "conditions": "10 μM"}, "Phorbol Ester": {"test_system": "Phorbol Ester", "assay": "Receptor binding assay panel: Phorbol Ester", "set-up": "species or system mouse", "conditions": "10 μM"}, "[3]": {"molecular_target": "Nicotinic Acetylcholine α3β4 (Homo sapiens (Human), UniProt P30926+P32297)", "assay": "Receptor binding assay panel: Nicotinic Acetylcholine α3β4", "method": "as §1"}, "[4]": {"assay": "Acute toxicity in the mouse", "conditions": "Albino Swiss CD-1, in vivo", "method": "The acute toxicity of the tested compound CVie214-salt and CVie216-salt have been determined in the mouse (Albino Swiss CD-1, body weight 30 g). Compounds have been orally administered or intravenously injected at increasing doses to identify the dose causing 50% mortality. Mortality occurred within 30 min after the administration and survival after 24 h.\nAs comparison, the acute toxicity for the reference compounds Digoxin and Istaroxime were also included. Digoxin refers to literature data (www.lookchem.com, Reference for Digoxin intravenous: Afifi A M, Ammar E M. Pharmacological Research Communications. Vol. 6, Pg. 417, 1974; Reference for Digoxin oral: Archives Internationales de Pharmacodynamie et de Therapie. Vol. 153, Pg. 436, 1965) (Table 3)."}, "Dopamine D1": {"molecular_target": "Dopamine D1 (Homo sapiens (Human), UniProt P21728)", "sequence (P21728 whole entry)": "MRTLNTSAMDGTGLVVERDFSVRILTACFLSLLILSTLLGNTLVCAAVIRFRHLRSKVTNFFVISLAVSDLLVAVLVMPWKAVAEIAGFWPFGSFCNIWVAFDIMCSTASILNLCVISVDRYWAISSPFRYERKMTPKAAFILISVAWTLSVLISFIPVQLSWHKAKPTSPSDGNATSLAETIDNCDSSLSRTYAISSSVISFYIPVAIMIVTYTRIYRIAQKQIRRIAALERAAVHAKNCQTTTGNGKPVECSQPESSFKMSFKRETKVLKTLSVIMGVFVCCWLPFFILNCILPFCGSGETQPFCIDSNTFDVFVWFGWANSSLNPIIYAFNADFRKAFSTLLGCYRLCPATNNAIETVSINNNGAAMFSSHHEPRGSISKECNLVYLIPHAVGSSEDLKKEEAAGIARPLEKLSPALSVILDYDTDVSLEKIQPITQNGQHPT", "assay": "Receptor binding assay panel: Dopamine D1"}, "Adrenergic α1B": {"molecular_target": "Adrenergic α1B (Rattus norvegicus (Rat), UniProt P15823)", "assay": "Receptor binding assay panel: Adrenergic α1B"}, "HMG-CoA Reductase": {"molecular_target": "HMG-CoA Reductase (Homo sapiens (Human), UniProt P04035)", "assay": "Receptor binding assay panel: HMG-CoA Reductase", "assay_type": "biochemical"}, "Potassium Channel (KATP)": {"molecular_target": "Potassium Channel (KATP) (Cricetus cricetus (Black-bellied hamster), UniProt Q09427)", "sequence (Q09427 whole entry, looked up)": "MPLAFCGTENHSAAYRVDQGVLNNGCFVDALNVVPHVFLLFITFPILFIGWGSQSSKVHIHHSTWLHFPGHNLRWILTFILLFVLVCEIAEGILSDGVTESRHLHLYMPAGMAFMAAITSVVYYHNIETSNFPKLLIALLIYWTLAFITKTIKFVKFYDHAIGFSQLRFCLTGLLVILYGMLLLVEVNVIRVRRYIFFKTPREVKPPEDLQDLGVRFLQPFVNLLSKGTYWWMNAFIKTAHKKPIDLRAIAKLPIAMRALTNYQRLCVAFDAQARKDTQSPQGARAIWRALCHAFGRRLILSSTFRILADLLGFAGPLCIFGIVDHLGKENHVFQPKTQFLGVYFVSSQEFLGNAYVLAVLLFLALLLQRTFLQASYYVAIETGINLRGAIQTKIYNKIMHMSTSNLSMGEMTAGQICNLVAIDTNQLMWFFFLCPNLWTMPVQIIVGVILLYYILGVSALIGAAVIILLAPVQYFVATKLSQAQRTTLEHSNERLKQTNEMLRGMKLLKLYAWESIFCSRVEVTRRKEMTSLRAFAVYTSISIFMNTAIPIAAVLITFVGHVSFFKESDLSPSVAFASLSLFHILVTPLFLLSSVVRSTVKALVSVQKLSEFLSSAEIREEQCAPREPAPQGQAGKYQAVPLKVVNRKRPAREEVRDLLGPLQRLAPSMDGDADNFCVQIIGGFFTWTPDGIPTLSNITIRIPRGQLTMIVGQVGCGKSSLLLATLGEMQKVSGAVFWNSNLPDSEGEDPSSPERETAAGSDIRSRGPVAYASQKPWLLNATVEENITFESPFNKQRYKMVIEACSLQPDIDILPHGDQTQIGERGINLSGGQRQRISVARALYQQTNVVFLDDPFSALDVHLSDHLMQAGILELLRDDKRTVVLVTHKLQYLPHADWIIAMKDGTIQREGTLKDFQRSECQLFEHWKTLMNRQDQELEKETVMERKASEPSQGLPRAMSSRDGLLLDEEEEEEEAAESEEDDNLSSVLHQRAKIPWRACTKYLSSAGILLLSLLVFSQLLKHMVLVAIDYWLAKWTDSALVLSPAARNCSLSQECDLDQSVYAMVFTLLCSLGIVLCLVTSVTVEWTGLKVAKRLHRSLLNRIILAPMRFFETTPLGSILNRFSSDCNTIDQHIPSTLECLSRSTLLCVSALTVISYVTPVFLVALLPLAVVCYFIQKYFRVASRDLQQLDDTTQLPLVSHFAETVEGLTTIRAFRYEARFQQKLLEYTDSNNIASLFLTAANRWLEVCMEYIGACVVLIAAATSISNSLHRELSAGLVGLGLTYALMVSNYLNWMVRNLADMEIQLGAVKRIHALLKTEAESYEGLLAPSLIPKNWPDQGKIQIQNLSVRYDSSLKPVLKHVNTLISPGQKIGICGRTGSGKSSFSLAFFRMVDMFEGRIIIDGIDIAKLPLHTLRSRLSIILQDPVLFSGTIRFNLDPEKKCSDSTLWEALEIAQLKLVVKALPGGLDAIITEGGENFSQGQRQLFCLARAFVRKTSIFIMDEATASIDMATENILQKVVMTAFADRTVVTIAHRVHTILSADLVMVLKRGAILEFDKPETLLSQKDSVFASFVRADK", "assay": "Receptor binding assay panel: Potassium Channel (KATP)", "method": "as §1"}, "Imidazoline I2, Central": {"test_system": "Imidazoline I2, Central", "assay": "Receptor binding assay panel: Imidazoline I2, Central", "set-up": "species or system rat", "conditions": "10 μM", "method": "as §1"}, "Androgen (Testosterone)": {"molecular_target": "Androgen (Testosterone) (Homo sapiens (Human), UniProt P10275)", "sequence (P10275 whole entry)": "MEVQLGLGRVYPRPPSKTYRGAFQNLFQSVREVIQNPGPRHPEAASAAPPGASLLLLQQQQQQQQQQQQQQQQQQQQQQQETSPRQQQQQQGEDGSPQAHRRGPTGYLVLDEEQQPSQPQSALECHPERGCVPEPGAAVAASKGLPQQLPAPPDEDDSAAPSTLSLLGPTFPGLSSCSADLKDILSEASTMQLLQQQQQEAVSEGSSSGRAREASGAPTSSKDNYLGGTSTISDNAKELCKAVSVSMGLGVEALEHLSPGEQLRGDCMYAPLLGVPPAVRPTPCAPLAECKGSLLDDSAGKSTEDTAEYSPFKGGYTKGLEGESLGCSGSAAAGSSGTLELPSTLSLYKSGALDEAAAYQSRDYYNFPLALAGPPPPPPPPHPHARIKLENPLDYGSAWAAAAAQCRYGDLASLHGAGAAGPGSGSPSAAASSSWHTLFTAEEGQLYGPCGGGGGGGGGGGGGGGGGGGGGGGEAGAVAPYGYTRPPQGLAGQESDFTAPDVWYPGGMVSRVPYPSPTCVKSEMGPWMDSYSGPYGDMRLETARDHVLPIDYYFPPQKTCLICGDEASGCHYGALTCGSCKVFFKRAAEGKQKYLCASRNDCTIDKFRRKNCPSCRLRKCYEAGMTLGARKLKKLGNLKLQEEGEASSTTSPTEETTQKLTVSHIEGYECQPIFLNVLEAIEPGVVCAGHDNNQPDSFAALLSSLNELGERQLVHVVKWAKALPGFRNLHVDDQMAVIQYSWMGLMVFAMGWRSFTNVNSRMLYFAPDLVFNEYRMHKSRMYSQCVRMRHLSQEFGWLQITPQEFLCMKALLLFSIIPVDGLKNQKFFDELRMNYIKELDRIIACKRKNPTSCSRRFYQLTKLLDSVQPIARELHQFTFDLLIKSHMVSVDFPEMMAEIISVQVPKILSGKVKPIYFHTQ", "assay": "Receptor binding assay panel: Androgen (Testosterone)", "method": "as §1"}, "CYP450, 19 (CYP19)": {"molecular_target": "CYP450, 19 (CYP19) (Homo sapiens (Human), UniProt P11511)", "assay": "Receptor binding assay panel: CYP450, 19"}, "[5]": {"molecular_target": "Protein Tyrosine Kinase, ABL1 (Homo sapiens (Human), UniProt P00519)", "assay": "Receptor binding assay panel: Protein Tyrosine Kinase, ABL1", "assay_type": "biochemical"}, "Peptidase, Renin": {"molecular_target": "Peptidase, Renin (Homo sapiens (Human), UniProt P00797)", "assay": "Receptor binding assay panel: Peptidase, Renin", "assay_type": "biochemical"}, "Dopamine D2s": {"molecular_target": "Dopamine D2s (Homo sapiens (Human), UniProt P14416)", "sequence (P14416 other isoform, or with tags, fused parts or gaps)": "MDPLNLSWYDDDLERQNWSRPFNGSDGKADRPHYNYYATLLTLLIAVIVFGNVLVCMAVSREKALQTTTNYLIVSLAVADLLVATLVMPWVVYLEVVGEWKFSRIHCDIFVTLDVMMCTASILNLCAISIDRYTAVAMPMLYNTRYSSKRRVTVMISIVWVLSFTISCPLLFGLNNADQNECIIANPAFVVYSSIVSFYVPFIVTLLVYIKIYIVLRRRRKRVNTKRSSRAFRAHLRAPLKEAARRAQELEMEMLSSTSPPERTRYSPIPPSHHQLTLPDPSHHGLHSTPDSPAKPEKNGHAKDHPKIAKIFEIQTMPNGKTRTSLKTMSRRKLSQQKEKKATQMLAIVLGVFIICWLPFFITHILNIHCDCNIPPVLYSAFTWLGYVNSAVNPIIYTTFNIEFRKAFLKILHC", "assay": "Receptor binding assay panel: Dopamine D2s"}, "Angiotensin AT1": {"molecular_target": "Angiotensin AT1 (Homo sapiens (Human), UniProt P30556)", "assay": "Receptor binding assay panel: Angiotensin AT1"}, "Histamine H1": {"molecular_target": "Histamine H1 (Homo sapiens (Human), UniProt P35367)", "assay": "Receptor binding assay panel: Histamine H1"}, "Sigma σ2": {"molecular_target": "Sigma σ2 (Homo sapiens (Human), UniProt Q5BJF2)", "sequence (Q5BJF2 whole entry)": "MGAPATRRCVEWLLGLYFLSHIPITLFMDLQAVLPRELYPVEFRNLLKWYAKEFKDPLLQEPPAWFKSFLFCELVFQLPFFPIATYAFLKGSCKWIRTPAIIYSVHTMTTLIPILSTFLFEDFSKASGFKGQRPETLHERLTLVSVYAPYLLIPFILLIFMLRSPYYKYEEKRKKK", "assay": "Receptor binding assay panel: Sigma σ2"}, "Adrenergic β1": {"molecular_target": "Adrenergic β1 (Homo sapiens (Human), UniProt P08588)", "sequence (P08588 whole entry)": "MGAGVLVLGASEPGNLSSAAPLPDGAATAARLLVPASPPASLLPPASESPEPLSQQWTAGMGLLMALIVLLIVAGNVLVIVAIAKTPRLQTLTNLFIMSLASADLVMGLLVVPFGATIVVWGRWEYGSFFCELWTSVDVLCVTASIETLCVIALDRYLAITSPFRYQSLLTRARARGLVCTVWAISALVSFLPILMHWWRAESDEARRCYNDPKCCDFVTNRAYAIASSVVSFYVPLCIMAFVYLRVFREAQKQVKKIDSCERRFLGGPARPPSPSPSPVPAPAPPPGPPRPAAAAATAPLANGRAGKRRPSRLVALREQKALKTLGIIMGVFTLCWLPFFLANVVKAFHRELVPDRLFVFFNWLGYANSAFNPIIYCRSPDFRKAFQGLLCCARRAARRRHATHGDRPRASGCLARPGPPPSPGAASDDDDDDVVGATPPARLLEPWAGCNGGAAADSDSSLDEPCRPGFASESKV", "assay": "Receptor binding assay panel: Adrenergic β1"}, "Progesterone PR-B": {"molecular_target": "Progesterone PR-B (Homo sapiens (Human), UniProt P06401)", "assay": "Receptor binding assay panel: Progesterone PR-B"}, "Phosphodiesterase PDE3": {"test_system": "Phosphodiesterase PDE3", "assay": "Receptor binding assay panel: Phosphodiesterase PDE3", "assay_type": "biochemical, Human", "conditions": "10 μM"}, "Adrenergic β2": {"molecular_target": "Adrenergic β2 (Homo sapiens (Human), UniProt P07550)", "sequence (P07550 whole entry)": "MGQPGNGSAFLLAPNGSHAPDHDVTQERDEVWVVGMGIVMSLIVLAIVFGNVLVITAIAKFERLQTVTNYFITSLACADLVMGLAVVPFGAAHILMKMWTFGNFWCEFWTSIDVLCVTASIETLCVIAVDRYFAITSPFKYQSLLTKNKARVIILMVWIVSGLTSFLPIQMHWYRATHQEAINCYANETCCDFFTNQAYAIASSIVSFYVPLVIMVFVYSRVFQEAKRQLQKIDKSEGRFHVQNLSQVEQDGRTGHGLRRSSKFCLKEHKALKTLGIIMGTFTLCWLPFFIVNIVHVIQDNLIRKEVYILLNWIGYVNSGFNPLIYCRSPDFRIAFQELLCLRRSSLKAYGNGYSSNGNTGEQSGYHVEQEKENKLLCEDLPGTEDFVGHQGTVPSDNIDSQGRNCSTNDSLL", "assay": "Receptor binding assay panel: Adrenergic β2"}, "Glucocorticoid": {"molecular_target": "Glucocorticoid (Homo sapiens (Human), UniProt P04150)", "assay": "Receptor binding assay panel: Glucocorticoid"}, "Estrogen ERα": {"molecular_target": "Estrogen ERα (Homo sapiens (Human), UniProt P03372)", "assay": "Receptor binding assay panel: Estrogen ERα"}},
  "note": "Where a name gives a salt, the structure may show the parent alone.",
  "data": [
    {"smiles": "C[C@]12CC[C@H](CC(=O)O)CC1C(O)CC1C2CC[C@]2(C)C(=O)CCC12", "note": "(stereo in doubt) [CVie216-salt, 2-(6beta-hydroxy-17-oxoandrostane-3-yl) acetic acid]", "values": [
      {"measurement": "inhibition at 10 µM", "setting": "Adenosine A2A", "value": -1, "unit": "%"},
      {"measurement": "inhibition at 10 µM", "setting": "Aldosterone", "value": -3, "unit": "%"},
      {"measurement": "inhibition at 10 µM", "setting": "Insulin", "value": 4, "unit": "%"},
      {"measurement": "bioavailability", "setting": "in vivo", "value": 16.9, "unit": "%"},
      {"measurement": "% inhib", "setting": "GABAA, Muscimol, Central", "value": 2, "unit": "%"},
      {"measurement": "inhibition at 10 µM", "setting": "[1]", "value": -4, "unit": "%"},
      {"measurement": "% inhib", "setting": "[2]", "value": "−7", "unit": "%"},
      {"measurement": "interaction on a panel of receptors (in words)", "setting": "panel of receptors", "value": "No significant interaction"},
      {"measurement": "% inhib", "setting": "Phorbol Ester", "value": "−7", "unit": "%"},
      {"measurement": "inhibition at 10 µM", "setting": "[3]", "value": -3, "unit": "%"},
      {"measurement": "LD50 at 24 h", "setting": "[4]; iv", "value": "> 300", "unit": "mg/kg"},
      {"measurement": "LD50 at 24 h", "setting": "[4]; oral, os", "value": "> 700", "unit": "mg/kg"},
      {"measurement": "inhibition at 10 µM", "setting": "Dopamine D1", "value": 13, "unit": "%"},
      {"measurement": "inhibition at 10 µM", "setting": "Adrenergic α1B", "value": 6, "unit": "%"},
      {"measurement": "inhibition at 10 µM", "setting": "HMG-CoA Reductase", "value": -4, "unit": "%"},
      {"measurement": "inhibition at 10 µM", "setting": "Potassium Channel (KATP)", "value": -11, "unit": "%"},
      {"measurement": "% inhib", "setting": "Imidazoline I2, Central", "value": 1, "unit": "%"},
      {"measurement": "inhibition at 10 µM", "setting": "Androgen (Testosterone)", "value": 6, "unit": "%"},
      {"measurement": "inhibition at 10 µM", "setting": "CYP450, 19 (CYP19)", "value": 0, "unit": "%"},
      {"measurement": "inhibition at 10 µM", "setting": "[5]", "value": 13, "unit": "%"},
      {"measurement": "inhibition at 10 µM", "setting": "Peptidase, Renin", "value": 7, "unit": "%"},
      {"measurement": "inhibition at 10 µM", "setting": "Dopamine D2s", "value": -4, "unit": "%"},
      {"measurement": "inhibition at 10 µM", "setting": "Angiotensin AT1", "value": 1, "unit": "%"},
      {"measurement": "inhibition at 10 µM", "setting": "Histamine H1", "value": 12, "unit": "%"},
      {"measurement": "inhibition at 10 µM", "setting": "Sigma σ2", "value": 4, "unit": "%"},
      {"measurement": "inhibition at 10 µM", "setting": "Adrenergic β1", "value": 2, "unit": "%"},
      {"measurement": "inhibition at 10 µM", "setting": "Progesterone PR-B", "value": 1, "unit": "%"},
      {"measurement": "% inhib", "setting": "Phosphodiesterase PDE3", "value": "−25", "unit": "%"},
      {"measurement": "inhibition at 10 µM", "setting": "Adrenergic β2", "value": -6, "unit": "%"},
      {"measurement": "inhibition at 10 µM", "setting": "Glucocorticoid", "value": -9, "unit": "%"},
      {"measurement": "inhibition at 10 µM", "setting": "Estrogen ERα", "value": -3, "unit": "%"}
    ]}
  ]
}
